The test system of the assay is B cell line, TNFa signaling counterscreen reporter. Briefly: TNFa signaling inhibitors in B cell line, dose response, counter-screen (AID 1259334).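 Also: cells stimulated with TNFa after compound preincubation.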

In PubChem BioAssay AID1259334 (Broad Institute, 2017) one finds AC50 data, which are given here for 79 compounds.

Activity calls are given as the source filed them. Rule as the data show it: active = AC50 below about 11 µM.

As to `CC1(C)C(=O)C=C[C@@]2(C)C1C=C[C@]1(C)C2CC[C@@]2(C)[C@H](c3ccoc3)OC(=O)[C@H]3O[C@]321` (some centres undefined), the AC50 – broadly, the concentration giving half of the maximal activity seen – was 4.98 µM.

With `OC1CC2CCC(C1)N2CCCN1c2ccccc2Sc2ccc(Cl)cc21` (centres undefined), the AC50 is 9.1 µM.

As to `CC1(C)C(=O)C=C[C@@]2(C)C1C[C@@H](O)[C@]1(C)C2CC[C@@]2(C)[C@H](c3ccoc3)OC(=O)[C@H]3O[C@]321` (some centres undefined), the AC50 was 11.3 µM.

Turning to `C[C@H]1CN([C@@H](C)CO)C(=O)c2cccc(NC(=O)Nc3ccc(F)cc3)c2O[C@H]1CN(C)S(=O)(=O)c1ccc(Cl)cc1`, the AC50 is 5.13 µM.

On to `O=S(=O)(/C(=C\c1ccc(C(F)(F)F)cc1)c1nc2ccccc2[nH]1)c1ccccc1`, for which the AC50 was 0.497 µM.

Turning to `COc1ccccc1NC(c1cccnc1)c1ccc2cccnc2c1O` (centres undefined), the concentration at half-maximal activity (AC50) was 8.22 µM.

As for `O=C(Nc1nc2ccccc2s1)c1ccc(OCC2CCCO2)cc1` (centres undefined), the AC50 was 10.2 µM.

On to `C[C@@H]1CC=CC[C@H](c2ccc(F)cc2)NC(=O)[C@@H](Cc2ccccc2)N(C)C(=O)c2ccccc2O1` (mixture of isomers), for which the AC50 was > 20 µM (inactive).

On to `O=C(C[C@@H]1CC[C@@H]2[C@H](COC[C@H](O)CN2Cc2cc(F)ccc2F)O1)NCc1ccc(Oc2ccccc2)cc1`, for which the AC50 is 5.02 µM.

With `CC(C)NC(=O)N1Cc2cc(C(=O)NC3Cc4ccccc4C3)nc(-c3cccc(-c4cccnc4)c3)c2[C@@H]1CCO`, the AC50 was 7.2 µM.

Regarding `CC(C)CCCCCCCCCCCCC(=O)NCC(=O)NC1C(O)C(O)C(Nc2ncnc3nc[nH]c23)OC1C(O)CO` (centres undefined), the AC50 is 0.00421 µM.

Regarding `Cc1noc(C)c1S(=O)(=O)N(C)C[C@@H]1OCc2ccccc2-c2c(n(C)c3ccccc23)C(=O)N([C@@H](C)CO)C[C@@H]1C`, the AC50 was 10.2 µM.

With `C[C@H]1CN([C@@H](C)CO)C(=O)c2c(c3ccccc3n2C)-c2ccccc2CO[C@H]1CN(C)C(=O)Nc1cccc(C(F)(F)F)c1`, the AC50 is > 20 µM (inactive).

Turning to `CC1=C(SCCO)C(=O)c2ccccc2C1=O`, the AC50 is 2.22 µM.

Take `CN(C)C(=S)SSC(=S)N(C)C`: the AC50 is 0.0358 µM.

Regarding `CC(=O)OC1CC2(O)C3CCC4CC(O)CCC4(C)C3CCC2(C)C1C1=CC(=O)OC1` (centres undefined), the AC50 was 0.839 µM.

In the case of `c1ccc2nc(-c3nc4ccccc4o3)ccc2c1`, the AC50 was 6.02 µM.

`Cc1noc(C)c1S(=O)(=O)Nc1ccc2c(c1)C(=O)N([C@H](C)CO)C[C@@H](C)[C@H](CN(C)C(=O)Nc1cccc3ccccc13)OCCCC[C@@H](C)O2`: the AC50 was > 20 µM (inactive).

On to `O=C(O)c1ccc(Nc2nc3c(s2)CCCC3)cc1`, for which the AC50 is 5.3 µM.

Turning to `CC[N+]1(C)CCC(O)(c2ccc(OC)cc2)C(C(=O)c2ccc(OC)cc2)C1` (centres undefined), the AC50 was 3.52 µM.

With `N#C[C@H]1N[C@H](CO)[C@H]1c1ccc(C#CC2CCCC2)cc1`, the AC50 is 8.01 µM.

As for `C[C@H](CO)N1C[C@H](C)[C@@H](CN(C)Cc2cccc(C(F)(F)F)c2)OCc2ccccc2-c2c(n(C)c3ccccc23)C1=O`, the AC50 was 8.03 µM.

Consider `COc1ccc(/C=C2/CCC(CN3CCOCC3)C2=O)cc1` (centres undefined), for which the AC50 is 2.69 µM.

On to `Cn1cnc(CCNC(=O)C[C@@H]2CC[C@@H]3[C@H](COC[C@@H](O)CN3C(=O)Nc3ccc(C(F)(F)F)cc3)O2)c1`, for which the AC50 is 9.53 µM.

In the case of `COc1ccc(C#Cc2ccc([C@@H]3[C@H](CO)N4CCCCN(C(=O)Nc5cccc(F)c5)C[C@@H]34)cc2)cc1`, the AC50 is 4.57 µM.

Take `CCOc1ncccc1C(=O)OC(C)C(=O)Nc1ccc(Cl)cn1` (centres undefined): the AC50 is 10.3 µM.

Regarding `COc1ccc(CN(CCC(c2ccccc2)c2ccc(OC(C)C)cc2)C(=O)CCl)cc1OC` (centres undefined), the AC50 was 1.46 µM.

As for `C[C@@H]1CN([C@@H](C)CO)C(=O)c2c(c3ccccc3n2C)-c2ccccc2CO[C@H]1CN(C)S(=O)(=O)c1ccc([N+](=O)[O-])cc1`, the AC50 is > 20 µM (inactive).

Regarding `COC(=O)c1ccccc1-c1c2ccc(=N)cc-2oc2cc(N)ccc12`, the half-maximal activity concentration (AC50) is 4.57 µM.

Take `C[C@@H]1CN([C@H](C)CO)C(=O)c2c(c3ccccc3n2C)-c2ccccc2CO[C@H]1CN(C)Cc1cccc(C(F)(F)F)c1`: the AC50 is > 20 µM (inactive).

On to `COc1ccc(S(=O)(=O)Nc2ccc3c(c2)C(=O)N([C@H](C)CO)C[C@@H](C)[C@@H](CN(C)Cc2ccc(C(F)(F)F)cc2)OCCCC[C@H](C)O3)cc1`, for which the AC50 is > 20 µM (inactive).

Turning to `Oc1cc2c(cc1C(c1ccc(Br)cc1)N1CCCC1)OCO2` (centres undefined), the AC50 was 6.97 µM.

As to `COc1cccc(/C=N/Nc2ccc(C(=O)O)cc2)c1O`, the AC50 was 2.02 µM.

For the compound `O=S(c1ccccc1O)S(=O)c1ccccc1O` (centres undefined), the AC50 is > 20 µM (inactive).

In the case of `CCCC(=O)NC1=C(Cl)C(=O)c2ccccc2C1=O`, the half-maximal activity concentration (AC50) is 0.712 µM.

Consider `COc1ccc(CN2CC3(CN(C(=O)Cc4ccccc4)C3)c3c([nH]c4cc(OC)ccc34)[C@@H]2CO)cc1`, for which the AC50 is > 20 µM (inactive).

`COc1ccc2c3c([nH]c2c1)[C@H](CO)N(C(=O)Nc1ccc(F)cc1)CC31CCN(C(=O)c2ccccc2F)CC1`: the AC50 is 6.12 µM.

For `CN(C)c1ccc(C=c2c3cc(O)ccc3n3c2cc(-c2ccccc2)[n+]3C)cc1`, the AC50 was 2.46 µM.

Take `N#C[C@@H]1[C@H](c2ccc(C#Cc3ccccc3F)cc2)[C@@H](CO)N1C(=O)C1CC1`: the AC50 was 3.39 µM.

Take `COc1cccc(S(=O)(=O)N(C)C[C@H]2OCc3ccccc3-c3c(n(C)c4ccccc34)C(=O)N([C@@H](C)CO)C[C@@H]2C)c1`: the AC50 is > 20 µM (inactive).

Consider `CC1CNCCN1S(=O)(=O)c1cccc2cnccc12` (centres undefined), for which the AC50 was 7.79 µM.

For `CC12CCC3C(CCC4(O)CC(O)CCC34C=NO)C1(O)CCC2C1=COC(=O)C1` (centres undefined), the AC50 is 0.6 µM.

Take `C[C@@H]1CN([C@@H](C)CO)C(=O)c2ccccc2-c2ccccc2CO[C@H]1CN(C)Cc1ccccc1C(F)(F)F`: the AC50 is 7.43 µM.

Turning to `COc1cccc(C#Cc2ccc([C@H]3[C@@H](C#N)N(C(=O)c4ccccn4)[C@@H]3CO)cc2)c1`, the AC50 was 10.3 µM.

In the case of `N#C[C@H]1[C@H](c2ccc(C#Cc3ccccc3F)cc2)[C@H](CO)N1C(=O)C1CC1`, the half-maximal activity concentration (AC50) is 11.3 µM.

`CC1CCCC=CC2CC(OC(=O)CN(C)C)CC2C(O)C=CC(=O)O1` (centres undefined): the AC50 is 0.0509 µM.

Consider `CC(C)[C@H](N)C(=O)N[C@H]1CCC2C3CC=C4C[C@@H](O)CC[C@]4(C)C3CC[C@@]21C` (some centres undefined), for which the AC50 was 1.96 µM.

As to `COC(=O)C[C@](O)(CCCC(C)(C)O)C(=O)O[C@@H]1C(OC)=C[C@]23CCCN2CCc2cc4c(cc2[C@H]13)OCO4`, the AC50 was below 0.0046 µM.

With `CCN(CC)CCCNc1nc2ccccc2c2[nH]c3ccc(OC)cc3c12`, the AC50 was 2.11 µM.

On to `Cc1ccc(C(OCC(O)CNCc2ccc(F)cc2)c2ccccc2)cc1` (centres undefined), for which the AC50 was 7.2 µM.

With `COc1c(O)cc2oc3cc(O)c(CC=C(C)C)c(O)c3c(=O)c2c1CC=C(C)C`, the AC50 is 3.15 µM.

For `COCC(C)n1c(C)cc(C(=O)COC(=O)c2cccn2C)c1C` (centres undefined), the AC50 was 0.76 µM.

For `O=C(Nc1ccccc1)N1CC(=O)N2[C@H](CO)[C@@H](c3ccc(C#CC4CCCCC4)cc3)[C@H]2C1`, the AC50 is 11.5 µM.

With `COc1ccc2c3c(n(C)c2c1)[C@H](CO)N(C(=O)Nc1ccc(F)cc1)CC31CCN(C(=O)c2ccc3c(c2)OCO3)CC1`, the AC50 is > 20 µM (inactive).

`C[C@H]1O[C@@H](O[C@H]2[C@@H](O)C[C@H](O[C@H]3[C@@H](O)C[C@H](O[C@H]4CC[C@]5(C)C6CC[C@]7(C)[C@@H](C8=CC(=O)OC8)CC[C@]7(O)C6CC[C@@H]5C4)O[C@@H]3C)O[C@@H]2C)C[C@H](O)[C@@H]1O` (some centres undefined): the half-maximal activity concentration (AC50) is 0.444 µM.

Regarding `Cc1ccc(S(=O)(=O)C=CS(=O)(=O)c2ccc(C)cc2)cc1`, the AC50 was 1.22 µM.

With `COC(=O)C1=C(C(=O)OC)C(C(=O)OC)C(C(=O)OC)C(C(=O)OC)(C(=O)OC)C(C(=O)OC)=C1C(=O)OC` (centres undefined), the AC50 was 4.62 µM.

`CNC(=S)NN=C(C)CCCC(C)=NNC(=S)NC`: the AC50 was 2.47 µM.

For `O=C1CCCCC1Sc1nnc(-c2ccc3c(c2)OCO3)o1` (centres undefined), the AC50 was 0.871 µM.

For `CC(C)Cc1ccc(C(C)CC2=CCC(CN(C)C)C2=O)cc1` (centres undefined), the AC50 is 2.41 µM.

As to `[O-]C(=C(C(=S)Nc1cccc2ccccc12)[n+]1ccccc1)c1ccc2c(c1)OCCO2`, the AC50 was > 20 µM (inactive).

With `C[C@H](CO)N1C[C@H](C)[C@@H](CN(C)Cc2ccc(Oc3ccccc3)cc2)OCc2ccccc2-c2ccccc2C1=O`, the AC50 is 7.02 µM.

As to `O=C(/C=C/c1cccs1)c1ccc(N2CCOCC2)cc1`, the AC50 is 3.87 µM.

Turning to `COc1ccc(C(=O)CCN2CCc3cc(OC)c(OC)cc3C2)cc1`, the AC50 is 5.97 µM.

Take `CCS(=O)(=O)N1[C@H](CO)[C@@H](c2ccc(C#Cc3ccccc3F)cc2)[C@@H]1C#N`: the AC50 was 7.11 µM.

Take `COc1ccc2c3c(n(C)c2c1)[C@@H](CO)N(C(=O)Nc1ccc(F)cc1)CC31CN(Cc2ccccc2F)C1`: the AC50 was > 20 µM (inactive).

For `Cc1ccc(N2CC(C(=O)Nc3nccs3)CC2=O)cc1Cl` (centres undefined), the half-maximal activity concentration (AC50) is 8.13 µM.

As to `O=C(Nc1ccc(C(F)(F)F)cc1)Nc1ccc2c(c1)[C@H]1C[C@@H](CC(=O)N3CCc4ccccc4C3)O[C@@H](CO)[C@H]1O2`, the AC50 is > 7 µM (inactive).

For the compound `Cc1ccc(S(=O)(=O)N[C@@H](Cc2ccccc2)C(=O)CCl)cc1`, the AC50 is 1.2 µM.

With `CN1C(=O)/C(=N\OC(=O)c2cccc3ccccc23)c2ccccc21`, the AC50 was 1.85 µM.

In the case of `CCCCCN1C=CC(=C2C(=O)c3ccccc3C2=O)C=C1`, the AC50 was 0.316 µM.

On to `N#C[C@H]1[C@H](c2ccc(C#Cc3ccccc3F)cc2)[C@@H](CO)N1C(=O)C1CCC1`, for which the AC50 is > 20 µM (inactive).

For `CC(C)(C)[S@](=O)N1Cc2cc(C(=O)NCC(F)(F)F)nc(-c3cccc(-c4cccc(F)c4)c3)c2[C@@H]1CCO`, the AC50 is > 20 µM (inactive).

In the case of `CCCCCCCCCCCCCCCC[n+]1ccccc1`, the AC50 was 0.119 µM.

As to `CC1OC(OC2C(O)CC(OC3C(O)CC(OC4CCC5(C)C(CCC6C5CCC5(C)C(C7=CC(=O)OC7)C(O)CC65O)C4)OC3C)OC2C)CC(O)C1O` (centres undefined), the AC50 is 0.745 µM.

`CC1CC(C)CC(C)C(O)C(C#N)=CC=CCC(C2CCCC2C(=O)O)OC(=O)CC(O)C(C)C1` (centres undefined): the AC50 is below 0.0005 µM.

Consider `c1ccc2c(c1)OCC(C1=NCCN1)O2` (centres undefined), for which the AC50 was > 20 µM (inactive).

As for `COc1ccc(/C=C\c2nc(=O)c3ccccc3o2)cc1`, the AC50 is 9.73 µM.

Take `N#CC(C#N)=NNc1ccc(OC(F)(F)F)cc1`: the AC50 is 7.15 µM.
